The values below come from patent US7964607B2, “Pyrazolo[3,4-d]pyrimidine compounds” (Pfizer Inc., priority 2007, dated 2011).

pIC50: −log10 of the molar value.

For the test, the target named is T1, human recombinant PDE9 enzyme (Homo sapiens, UniProt O76083).
T1 construct: made in house; host or cells: SF-9 insect cells
T1 sequence (O76083 whole entry): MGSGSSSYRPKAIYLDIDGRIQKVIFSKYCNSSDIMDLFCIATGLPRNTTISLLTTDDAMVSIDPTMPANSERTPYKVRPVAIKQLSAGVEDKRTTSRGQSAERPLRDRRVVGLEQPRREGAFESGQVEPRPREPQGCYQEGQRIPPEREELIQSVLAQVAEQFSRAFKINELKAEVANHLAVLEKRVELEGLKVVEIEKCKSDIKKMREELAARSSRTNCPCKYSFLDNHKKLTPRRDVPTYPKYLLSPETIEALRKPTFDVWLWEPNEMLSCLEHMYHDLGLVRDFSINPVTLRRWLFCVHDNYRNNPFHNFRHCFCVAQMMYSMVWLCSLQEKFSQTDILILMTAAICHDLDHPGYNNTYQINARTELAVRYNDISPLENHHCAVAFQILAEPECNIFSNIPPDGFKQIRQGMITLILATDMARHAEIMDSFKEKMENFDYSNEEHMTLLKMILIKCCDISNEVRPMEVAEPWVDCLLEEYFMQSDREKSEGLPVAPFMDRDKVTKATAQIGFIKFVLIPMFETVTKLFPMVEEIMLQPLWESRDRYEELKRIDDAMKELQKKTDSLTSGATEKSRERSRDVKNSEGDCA
As to the kind of experiment: Phosphodiesterase 9 (PDE9) inhibitory activity, Scintillation Proximity (SPA) assay. It is filed as biochemical. To be noted: human recombinant PDE9 from SF-9 cells; 50 nM [3H]cGMP; room temperature, 30 min; additional compounds Ex. 115-228; read-out: G5678A (U):IC50. How it is done: Phosphodiesterase 9 (PDE9) Inhibitory Activity The PDE9 assay was performed using the Phosphodiesterase Scintillation Proximity (SPA) assay (GE Healthcare Life Sciences). […] The human recombinant PDE9 enzyme was generated in SF-9 cells, the cell pellets were sonicated in buffer (20 mM TRIS, 2 mM benzamidine, 1 mM EDTA, 250 mM sucrose, 100 μM PMSF, pH 7.5 with HCl), centrifuged at 40,000×g for 20 min at 4° C. The supernatants were stored at −80° C. […] Test compounds were dissolved in DMSO, diluted in DI H2O and serially diluted in 20% DMSO/80% H2O, for a final concentration of 2% DMSO. For the assay the PDE9 was diluted with assay buffer such that 20% or less of the substrate was hydrolyzed to 5′GMP. Each assay well contained 10 μl of test compound or solvent, 40 μl of [^3H]CGMP and 50 μl of enzyme, background was determined by a high concentration of a PDE inhibitor. The assay was initiated with the addition of the enzyme and carried out at room temperature for 30 min. […] The plates were sealed, vortexed, allowed to set for >300 min, then counted in a Wallac TriLux MicroBeta LSC.
(In general: In a scintillation proximity assay essentially only radioactivity close to the scintillant gives light.)
The term pIC50 denotes −log10 of the IC50, conventionally taken in molar units. Consider `C[C@@H]1CN(Cc2cccc(-n3cccn3)c2)C[C@H]1c1nc2c(cnn2C2CCCC2)c(=O)[nH]1` (racemic) [Example 115, 1-cyclopentyl-6-{(3,4-trans)-4-methyl-1-[3-(1H-pyrazol-1-yl)benzyl]pyrrolidin-3-yl}-1,5-dihydro-4H-pyrazolo[3,4-d]pyrimidin-4-one], for which the pIC50 was 7.39. For `Cc1cc(CN2C[C@@H](C)[C@H](c3nc4c(cnn4C4CCCC4)c(=O)[nH]3)C2)ccn1` (racemic) [Example 116, 1-cyclopentyl-6-{(3,4-trans)-4-methyl-1-[(2-methylpyridin-4-yl)methyl]pyrrolidin-3-yl}-1,5-dihydro-4H-pyrazolo[3,4-d]pyrimidin-4-one], the pIC50 was 7.47.

Take `C[C@@H]1CN(Cc2c(F)cccc2Cl)C[C@H]1c1nc2c(cnn2C2CCCC2)c(=O)[nH]1` (racemic) [Example 117, 6-[(3,4-trans)-1-(2-chloro-6-fluorobenzyl)-4-methylpyrrolidin-3-yl]-1-cyclopentyl-1,5-dihydro-4H-pyrazolo[3,4-d]pyrimidin-4-one]: the pIC50 was 6.90. Regarding `Cc1cccc(CN2C[C@@H](C)[C@H](c3nc4c(cnn4C4CCCC4)c(=O)[nH]3)C2)c1C` (racemic) [Example 118, 1-cyclopentyl-6-[(3,4-trans)-1-(2,3-dimethylbenzyl)-4-methylpyrrolidin-3-yl]-1,5-dihydro-4H-pyrazolo[3,4-d]pyrimidin-4-one], the pIC50 was 7.13. For `C[C@@H]1CN(Cc2ccccc2OC(F)F)C[C@H]1c1nc2c(cnn2C2CCCC2)c(=O)[nH]1` (racemic) [Example 119, 1-cyclopentyl-6-{(3,4-trans)-1-[2-(difluoromethoxy)benzyl]-4-methylpyrrolidin-3-yl}-1,5-dihydro-4H-pyrazolo[3,4-d]pyrimidin-4-one] the value was 7.48; for `CCOc1ncccc1CN1C[C@@H](C)[C@H](c2nc3c(cnn3C3CCCC3)c(=O)[nH]2)C1` (racemic) [Example 120, 1-cyclopentyl-6-{(3,4-trans)-1-[(2-ethoxypyridin-3-yl)methyl]-4-methylpyrrolidin-3-yl}-1,5-dihydro-4H-pyrazolo[3,4-d]pyrimidin-4-one], 7.20.

On to `C[C@@H]1CN(Cc2cnn3c2CCCC3)C[C@H]1c1nc2c(cnn2C2CCCC2)c(=O)[nH]1` (racemic) [Example 121, 1-cyclopentyl-6-[(3,4-trans)-4-methyl-1-(4,5,6,7-tetrahydropyrazolo[1,5-a]pyridin-3-ylmethyl)pyrrolidin-3-yl]-1,5-dihydro-4H-pyrazolo[3,4-d]pyrimidin-4-one], for which the negative logarithm of the IC50 (pIC50) is 7.08. Turning to `C[C@@H]1CN(Cc2ccc3c(c2)OCCO3)C[C@H]1c1nc2c(cnn2C2CCCC2)c(=O)[nH]1` (racemic) [Example 122, 1-cyclopentyl-6-[(3,4-trans)-1-(2-3-dihydro-1,4-benzodioxin-6-ylmethyl)-4-methylpyrrolidin-3-yl]-1,5-dihydro-4H-pyrazolo[3,4-d]pyrimidin-4-one], the pIC50 was 7.25.

Turning to `C[C@@H]1CN(Cc2ccc(-n3ccnc3)cc2)C[C@H]1c1nc2c(cnn2C2CCCC2)c(=O)[nH]1` (racemic) [Example 123, 1-cyclopentyl-6-{(3,4-trans)-1-[4-(1H-imidazol-1-yl)benzyl]-4-methylpyrrolidin-3-yl}-1,5-dihydro-4H-pyrazolo[3,4-d]pyrimidin-4-one], the pIC50 was 7.41. Regarding `C[C@@H]1CN(Cc2cc(Cl)ccc2Cl)C[C@H]1c1nc2c(cnn2C2CCCC2)c(=O)[nH]1` (racemic) [Example 124, 1-cyclopentyl-6-[(3,4-trans)-1-(2,5-dichlorobenzyl)-4-methylpyrrolidin-3-yl]-1,5-dihydro-4H-pyrazolo[3,4-d]pyrimidin-4-one], the pIC50 was 7.09. The value for `COc1ccc(CN2C[C@@H](C)[C@H](c3nc4c(cnn4C4CCCC4)c(=O)[nH]3)C2)cc1C` (racemic) [Example 125, 1-cyclopentyl-6-[(3,4-trans)-1-(4-methoxy-3-methylbenzyl)-4-methylpyrrolidin-3-yl]-1,5-dihydro-4H-pyrazolo[3,4-d]pyrimidin-4-one] was 7.26; that for `C[C@@H]1CN(Cc2cccc3c2OCC3)C[C@H]1c1nc2c(cnn2C2CCCC2)c(=O)[nH]1` (racemic) [Example 126, 1-cyclopentyl-6-[(3,4-trans)-1-(2,3-dihydro-1-benzofuran-7-ylmethyl)-4-methylpyrrolidin-3-yl]-1,5-dihydro-4H-pyrazolo[3,4-d]pyrimidin-4-one] was 7.05; that for `C[C@@H]1CN(Cc2cccc(F)c2F)C[C@H]1c1nc2c(cnn2C2CCCC2)c(=O)[nH]1` (racemic) [Example 127, 1-cyclopentyl-6-[(3,4-trans)-1-(2,3-difluorobenzyl)-4-methylpyrrolidin-3-yl]-1,5-dihydro-4H-pyrazolo[3,4-d]pyrimidin-4-one] was 7.21. As to `COc1ccc(F)cc1CN1C[C@@H](C)[C@H](c2nc3c(cnn3C3CCCC3)c(=O)[nH]2)C1` (racemic) [Example 128, 1-cyclopentyl-6-[(3,4-trans)-1-(5-fluoro-2-methoxybenzyl)-4-methylpyrrolidin-3-yl]-1,5-dihydro-4H-pyrazolo[3,4-d]pyrimidin-4-one], the pIC50 was 7.15. In the case of `COc1ccc(CN2C[C@@H](C)[C@H](c3nc4c(cnn4C4CCCC4)c(=O)[nH]3)C2)c(F)c1` (racemic) [Example 129, 1-cyclopentyl-6-[(3,4-trans)-1-(2-fluoro-4-methoxybenzyl)-4-methylpyrrolidin-3-yl]-1,5-dihydro-4H-pyrazolo[3,4-d]pyrimidin-4-one], the pIC50 is 7.14.

With `Cc1ccc(CN2C[C@@H](C)[C@H](c3nc4c(cnn4C4CCCC4)c(=O)[nH]3)C2)cc1F` (racemic) [Example 130, 1-cyclopentyl-6-[(3,4-trans)-1-(3-fluoro-4-methylbenzyl)-4-methylpyrrolidin-3-yl]-1,5-dihydro-4H-pyrazolo[3,4-d]pyrimidin-4-one], the pIC50 is 7.22. The value for `Cc1ncc(CN2C[C@@H](C)[C@H](c3nc4c(cnn4C4CCCC4)c(=O)[nH]3)C2)s1` (racemic) [Example 131, 1-cyclopentyl-6-{(3,4-trans)-4-methyl-1-[(2-methyl-1,3-thiazol-5-yl)methyl]pyrrolidin-3-yl}-1,5-dihydro-4H-pyrazolo[3,4-d]pyrimidin-4-one] was 7.38; that for `CC(C)c1csc(CN2C[C@@H](C)[C@H](c3nc4c(cnn4C4CCCC4)c(=O)[nH]3)C2)n1` (racemic) [Example 132, 1-cyclopentyl-6-{(3,4-trans)-1-[(4-isopropyl-1,3-thiazol-2-yl)methyl]-4-methylpyrrolidin-3-yl}-1,5-dihydro-4H-pyrazolo[3,4-d]pyrimidin-4-one] was 7.43.

`Cc1ccc(CN2C[C@@H](C)[C@H](c3nc4c(cnn4C4CCCC4)c(=O)[nH]3)C2)c(F)c1F` (racemic) [Example 134, 1-cyclopentyl-6-[(3,4-trans)-1-(2,3-difluoro-4-methylbenzyl)-4-methylpyrrolidin-3-yl]-1,5-dihydro-4H-pyrazolo[3,4-d]pyrimidin-4-one]: the negative-log IC50 (pIC50) is 7.03. The value for `C[C@@H]1CN(Cc2cccc(-n3cccn3)n2)C[C@H]1c1nc2c(cnn2C2CCCC2)c(=O)[nH]1` (racemic) [Example 135, 1-cyclopentyl-6-[(3,4-trans)-4-methyl-1-{[6-(1H-pyrazol-1-yl)pyridin-2-yl]methyl}pyrrolidin-3-yl]-1,5-dihydro-4H-pyrazolo[3,4-d]pyrimidin-4-one] was 7.04.
